Data set [1] in a line: MRT (infinity) in Sprague-Dawley rat at 30 mg/kg, po as submicron emulsion measured after 24 hrs by LC-MS/MS analysis. Particulars: in vivo. It counts as ADME, organism-based.
Data set [2] is described as follows: MRT (infinity) in Sprague-Dawley rat at 2 mg/kg, iv measured after 24 hrs by LC-MS/MS analysis. The conditions noted are these: in vivo. In kind it is ADME, organism-based.
Data set [3] in a line: MRT (infinity) in Sprague-Dawley rat at 30 mg/kg, po measured after 24 hrs by LC-MS/MS analysis. In kind it is ADME, organism-based. Particulars: in vivo.
Data set [4] concerns HCT-116. Description: Induction of apoptosis in human HCT-116 cells assessed as increase in apoptotic cells by measuring red fluorescence by TUNEL staining based fluorescence microscopic analysis. In kind it is functional, cell-based. The conditions noted are these: dose 50-400 nM.
Data set [5] concerns HCT-116. Description: Upregulation of p21 expression in human HCT-116 cells at 100 to 400 nM incubated for 48 hrs by Western blot analysis. It counts as functional, cell-based. Particulars: dose 100-400 nM. A general note: In western blotting, separated proteins are transferred to a membrane and probed.
A further data set concerns the target CDK9/cyclin T1 (Homo sapiens, UniProt P50750). Description: Binding affinity to CDK9/cyclin T1 (unknown origin) assessed as dissociation constant by SPR analysis. In kind it is protein-complex assay.
Data set [6] deals with HCT-116. Description: Antitumor activity against human HCT-116 cells xenografted in female BALB/c nu-nu mouse assessed as tumor growth inhibition at 20 mg/kg, po as submicron emulsion administered once daily for 3 weeks by vernier caliper analysis. It counts as functional, organism-based. For orientation: A xenograft is tissue or cells of one species grown in another, often human tumour cells in immunodeficient mice.

The next data set concerns HepG2. The data set is described as follows: Cytotoxicity against human HepG2 cells assessed as cell viability incubated for 48 hrs by CCK8 assay. It counts as functional, cell-based. On the technique in general: Formazan colour is commonly taken as a measure of viable cells.
Data set [7] is described as follows: Metabolic stability in human liver microsome assessed as half life at 100 uM pre-incubated with compound for 60 mins followed by NADPH addition and measured up to 60 mins by LC-MS/MS analysis. It counts as ADME. Particulars: liver microsomes, time < 120 min.
The nature of data set [8]: Half life in Sprague-Dawley rat at 30 mg/kg, po as submicron emulsion measured after 24 hrs by LC-MS/MS analysis. It counts as ADME, organism-based. Particulars: in vivo.
In another data set the test system is NCM460. Description: Cytotoxicity against human NCM460 cells assessed as cell viability incubated for 48 hrs by CCK8 assay. In kind it is toxicity, cell-based. The conditions noted are these: ncm460, 48 h.
The nature of data set [9]: AUC (0 to t) in Sprague-Dawley rat at 2 mg/kg, iv measured after 24 hrs by LC-MS/MS analysis. In kind it is ADME, organism-based. The conditions noted are these: in vivo.
Data set [10] can be described thus: Toxicity in female BALB/c nu-nu mouse xenografted with human HCT-116 cells assessed as histopathological changes in spleen at 20 mg/kg, po as submicron emulsion administered once daily for 3 weeks by H and E staining based analysis. It counts as organism-based. The conditions noted are these: in vivo, 504 h.
A short description of data set [11]: Plasma protein binding in human at 100 uM measured up to 120 mins by LC-MS/MS analysis relative to control. It counts as ADME, cell-free. The conditions noted are these: read-out: PPB (converted).
Data set [12] is described as follows: Toxicity in female BALB/c nu-nu mouse xenografted with human HCT-116 cells assessed as histopathological changes in lung at 40 mg/kg, po administered once daily for 3 weeks by H and E staining based analysis. It counts as organism-based. The conditions noted are these: in vivo, 504 h.
The target of a further data set is CDK2/Cyclin A2 (Homo sapiens, UniProt P24941). Description: Inhibition of CDK2/cyclA2 (unknown origin) by ADP-Glo assay. It counts as protein-complex assay.
Data set [13] in a line: Toxicity in female BALB/c nu-nu mouse xenografted with human HCT-116 cells assessed as histopathological changes in lung at 20 mg/kg, po as submicron emulsion administered once daily for 3 weeks by H and E staining based analysis. In kind it is organism-based. The conditions noted are these: in vivo, 504 h.
The subject of data set [14] is HCT-116. Description: Downregulation of Bcl-2 level in human HCT-116 cells at 200 to 400 nM incubated for 48 hrs by Western blot analysis. In kind it is functional, cell-based. Particulars: dose 200-400 nM.
Data set [15] relates to HCT-116. Description: Induction of cell senescence in human HCT-116 cells at 100 to 400 nM incubated for 48 hrs by beta-galactosidase staining based analysis. The conditions noted are these: dose 100-400 nM. It counts as functional.
The nature of data set [16]: Half life in Sprague-Dawley rat at 2 mg/kg, iv measured after 24 hrs by LC-MS/MS analysis. It counts as ADME, organism-based. Particulars: in vivo.
Data set [17] relates to HCT-116. The data set is described as follows: Antitumor activity against human HCT-116 cells xenografted in female BALB/c nu-nu mouse assessed as reduction in Ki67 positive cells at 40 mg/kg, po by staining based analysis. In kind it is functional, organism-based.

Molecules are shown by their SMILES. Activity calls are given as the source filed them. The rule behind the calls is not given here.

Here are results for one compound from ChEMBL document CHEMBL6178014, “Discovery and Administration Optimization of Novel Selective CDK9 Inhibitor, 1-7a-B1, for Improved Pharmacokinetics and Antitumor Efficacy In Vivo” (J Med Chem, 2025).

Sequence of CDK9/cyclin T1 (O60563 whole entry): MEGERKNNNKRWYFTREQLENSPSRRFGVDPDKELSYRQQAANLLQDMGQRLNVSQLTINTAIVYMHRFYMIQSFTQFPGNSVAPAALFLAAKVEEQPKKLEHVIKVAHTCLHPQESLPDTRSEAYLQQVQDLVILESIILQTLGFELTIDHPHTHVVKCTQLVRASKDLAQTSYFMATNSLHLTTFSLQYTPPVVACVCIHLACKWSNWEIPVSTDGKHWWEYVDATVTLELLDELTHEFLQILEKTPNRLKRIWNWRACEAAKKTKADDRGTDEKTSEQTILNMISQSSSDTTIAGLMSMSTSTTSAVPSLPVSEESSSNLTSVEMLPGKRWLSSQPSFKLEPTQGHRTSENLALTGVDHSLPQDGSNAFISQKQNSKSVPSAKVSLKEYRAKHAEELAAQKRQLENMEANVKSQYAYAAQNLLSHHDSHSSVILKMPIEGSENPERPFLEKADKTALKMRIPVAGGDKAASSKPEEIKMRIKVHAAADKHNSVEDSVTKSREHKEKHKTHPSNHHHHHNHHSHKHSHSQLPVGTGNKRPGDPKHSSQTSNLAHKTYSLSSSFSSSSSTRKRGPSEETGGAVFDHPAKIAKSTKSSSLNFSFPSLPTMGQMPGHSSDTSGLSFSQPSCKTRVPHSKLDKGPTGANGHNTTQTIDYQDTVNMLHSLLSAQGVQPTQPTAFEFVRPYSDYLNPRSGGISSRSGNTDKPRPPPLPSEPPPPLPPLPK
Sequence of CDK9/cyclin T1 (P50750 whole entry): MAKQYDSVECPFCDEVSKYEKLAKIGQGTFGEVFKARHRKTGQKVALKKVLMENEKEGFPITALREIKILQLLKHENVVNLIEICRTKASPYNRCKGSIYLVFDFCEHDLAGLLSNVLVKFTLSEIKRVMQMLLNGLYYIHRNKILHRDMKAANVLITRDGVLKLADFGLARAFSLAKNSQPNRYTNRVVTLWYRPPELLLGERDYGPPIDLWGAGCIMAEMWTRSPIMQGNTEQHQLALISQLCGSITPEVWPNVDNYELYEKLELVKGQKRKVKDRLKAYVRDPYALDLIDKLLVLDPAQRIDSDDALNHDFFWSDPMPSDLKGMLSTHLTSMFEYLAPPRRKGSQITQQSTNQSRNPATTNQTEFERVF

For the compound `CC(C)Oc1cc(F)ccc1-c1ccnc(NC(=O)Nc2cccc(C(=O)N3CCN(C)CC3)c2)c1`, the MRT inf in [1] turned out to be 125 min; in data set [2] it was 20.1 min; in data set [3] it was 87 min. Besides, the Activity result in the data set with HCT-116 [4] is “Dose-dependent-effect”; with NCM460, “Toxic”; in [10] it was “Non-toxic”; in [12], “Non-toxic”; in [13], “Non-toxic”. Also, the outcome in the data set on HCT-116 [5], in the data set on HCT-116 [6], with HepG2, in the data set with HCT-116 [14], with HCT-116 [15] and in the data set on HCT-116 [17] was Active. The Kd on CDK9/cyclin T1 worked out at 8.87 µM. Further, the half-life at 100 µM in [7] was determined as 3.9 min. In addition, the half-life is 55.2 min in [8] and 17.6 min in data set [16]. The AUC(0-t) at 24 h in data set [9] came out at 403 ng·h/mL. Besides, in [11], the fraction unbound at 2 h, 100 µM was 0.006. For the same compound, the IC50 against CDK2/Cyclin A2 turned out to be 1.18 µM.

What is called MRT inf is a mean duration of stay, worked out from the concentration-time curve. The term Kd denotes the concentration at which binding is half-saturated. By half-life is commonly meant the time in which the quantity being followed falls by half. Broadly, the AUC(0-t) is the area under the concentration-time curve up to a stated or last time point. A lower AUC(0-t) goes with low exposure. One may read the IC50 as the midpoint of a concentration-inhibition curve. Read a low IC50 as inhibition by little substance.
